Reference: patent publication EP3436445B1, “HISTONE DEMETHYLASE INHIBITORS” (Celgene Quanticel Research, Inc., priority 2016, dated 2017)

How the values were obtained:
JMJD3 = biological target: T1, JMJD3 (Homo sapiens, UniProt O15054); test: JMJD3 in vitro enzyme inhibition assay (AlphaScreen); format: biochemical; conditions: Table 5; 1 nM JMJD3, H3K27me3-biotin labeled peptide
T1 construct: purchased BPS Bioscience 50115
Description: (§1) This assay determines the ability of a test compound to inhibit Jarid1B, JMJD2C and JMJD3 demethylase activity. Baculovirus expressed Jarid1B (GenBank Accession #NM-006618, AA 2-751) was purchased from BPS Bioscience (Cat #50121) or custom made by MolecularThroughput. Baculovirus expressed JMJD2C (GenBank Accession #BC143571, AA 2-372) was purchased from BPS Bioscience (Cat#50105). Baculovirus expressed JMJD3 (GenBank Accession #NM-001080424, AA1043-end) was purchased from BPS Bioscience (Cat#50115).
The ability of test compounds to inhibit the activity of JMJD3 was determined in 384-well plate format under the following reaction conditions: 1 nM JMJD3, 250 nM H3K27me3-biotin labeled peptide (Anaspec cat # 64367), 1 µM alpha-ketoglutaric acid in assay buffer of 50 mM HEPES, pH7.3, 0.005% Brij35, 0.5 mM TCEP, 0.2 mg/ml BSA, 50 µM sodium L-ascorbate, 5 µM ammonium iron(II) sulfate. Reaction product is determined quantitatively by AlphaScreen detection after the addition of detection reagents anti-H3K27me1 antibody, 5 µg/ml AlphaScreen® Streptavidin-coated Donor beads, and 5 µg/ml AlphaScreen® Protein A Acceptor beads in 50 mM HEPES, pH7.3, 10 mM NaCl, 0.005% Brij35, 10 mM EDTA, 2 mg/ml BSA.
The assay reaction was initiated by the following: 3 µl of the mixture of 750 nM H3K27me3-biotin labeled peptide and 3 µM alpha-ketoglutaric acid with 3 µl of 11-point serial diluted inhibitor in 3% DMSO are added to each well of 384 well Proxiplate (Perkin Elmer), followed by the addition of 3 µl of 3 nM JMJD3 to initiate the reaction. The reaction mixture is incubated at room temperature for 20 minutes, and terminated by the addition of 3 µl of appropriate dilution of anti H3K27me1 antibody in 50 mM HEPES, pH7.3, 10 mM NaCl, 0.005% Brij35, 10 mM EDTA, 2 mg/ml BSA. Plates will then incubated at room temperature for 1 hour, followed by addition of 3 µl of 25 µg/ml AlphaScreen® Streptavidin-coated Donor beads and AlphaScreen® Protein A Acceptor beads in 50 mM HEPES, pH7.3, 10 mM NaCl, 0.005% Brij35, 10 mM EDTA, 2 mg/ml BSA. Plates will then be read by EnVision Multilabel Reader in AlphaScreen mode after minimum 2 hour incubation at room temperature. The AlphaScreen signal for each well is used to determine inhibition constant (IC50).

Jarid1B = biological target: T2, Jarid1B (Homo sapiens, UniProt Q9UGL1); test: Jarid1B in vitro enzyme inhibition assay (TR-FRET); format: biochemical; conditions: Table 5; 0.8 nM Jarid1B, H3K4me3-biotin labeled peptide; read-out: JARID1B IC5
T2 construct: purchased BPS Bioscience (or custom made by MolecularThroughput) 50121
T2 sequence (Q9UGL1 2-751): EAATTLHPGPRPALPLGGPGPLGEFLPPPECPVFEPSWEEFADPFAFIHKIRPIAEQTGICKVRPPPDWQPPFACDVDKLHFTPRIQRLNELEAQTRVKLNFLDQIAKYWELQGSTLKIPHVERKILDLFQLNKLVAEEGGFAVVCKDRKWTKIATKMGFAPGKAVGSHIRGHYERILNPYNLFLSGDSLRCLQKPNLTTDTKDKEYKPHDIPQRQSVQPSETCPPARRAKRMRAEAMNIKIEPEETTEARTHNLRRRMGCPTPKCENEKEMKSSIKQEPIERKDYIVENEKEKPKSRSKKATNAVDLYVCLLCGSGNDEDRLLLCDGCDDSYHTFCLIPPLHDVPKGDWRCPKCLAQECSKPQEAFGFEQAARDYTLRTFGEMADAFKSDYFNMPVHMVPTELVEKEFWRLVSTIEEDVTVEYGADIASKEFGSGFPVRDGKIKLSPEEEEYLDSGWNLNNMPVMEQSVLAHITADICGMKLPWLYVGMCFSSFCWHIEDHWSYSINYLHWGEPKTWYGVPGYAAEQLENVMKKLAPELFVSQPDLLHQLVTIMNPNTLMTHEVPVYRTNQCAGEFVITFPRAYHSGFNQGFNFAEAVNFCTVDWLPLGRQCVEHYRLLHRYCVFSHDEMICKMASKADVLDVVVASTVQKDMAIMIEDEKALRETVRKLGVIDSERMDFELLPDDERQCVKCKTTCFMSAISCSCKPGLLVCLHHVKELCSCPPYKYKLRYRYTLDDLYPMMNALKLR
Description: as §1
The ability of test compounds to inhibit the activity of Jarid1B was determined in 384-well plate format under the following reaction conditions: 0.8 nM Jarid1B, 300 nM H3K4me3-biotin labeled peptide (Anaspec cat #64357), 2 µM alpha-ketoglutaric acid in assay buffer of 50 mM HEPES, pH7.3, 0.005% Brij35, 0.5 mM TCEP, 0.2 mg/ml BSA, 50 µM sodium L-ascorbate, and 2 µM ammonium iron(II) sulfate. Reaction product was determined quantitatively by TR-FRET after the addition of detection reagent Phycolink Streptavidin-allophycocyanin (Prozyme) and Europium-anti-mono-or di-methylated histone H3 lysine 4 (H3K4me1-2) antibody (PerkinElmer) in the presence of 5 mM EDTA in LANCE detection buffer (PerkinElmer) at a final concentration of 25 nM and 1 nM, respectively.
The assay reaction was initiated by the following: 2 µl of the mixture of 900 nM H3K4me3-biotin labeled peptide and 6 µM alpha-ketoglutaric acid with 2 µl of 11-point serial diluted inhibitor in 3% DMSO was added to each well of the plate, followed by the addition of 2 µl of 2.4 nM Jarid1B to initiate the reaction. The reaction mixture was incubated at room temperature for 30 minutes, and terminated by the addition of 6 µl of 5 mM EDTA in LANCE detection buffer containing 50 nM Phycolink Streptavidin-allophycocyanin and 2 nM Europium-anti-H3K4me1-2 antibody. Plates were read by EnVisionMultilabel Reader in TR-FRET mode (excitation at 320 nm, emission at 615 nm and 665 nm) after 1 hour incubation at room temperature. A ratio was calculated (665/615) for each well and fitted to determine inhibition constant (IC50).

T1 sequence (O15054 1043-1682 isoform O15054-1): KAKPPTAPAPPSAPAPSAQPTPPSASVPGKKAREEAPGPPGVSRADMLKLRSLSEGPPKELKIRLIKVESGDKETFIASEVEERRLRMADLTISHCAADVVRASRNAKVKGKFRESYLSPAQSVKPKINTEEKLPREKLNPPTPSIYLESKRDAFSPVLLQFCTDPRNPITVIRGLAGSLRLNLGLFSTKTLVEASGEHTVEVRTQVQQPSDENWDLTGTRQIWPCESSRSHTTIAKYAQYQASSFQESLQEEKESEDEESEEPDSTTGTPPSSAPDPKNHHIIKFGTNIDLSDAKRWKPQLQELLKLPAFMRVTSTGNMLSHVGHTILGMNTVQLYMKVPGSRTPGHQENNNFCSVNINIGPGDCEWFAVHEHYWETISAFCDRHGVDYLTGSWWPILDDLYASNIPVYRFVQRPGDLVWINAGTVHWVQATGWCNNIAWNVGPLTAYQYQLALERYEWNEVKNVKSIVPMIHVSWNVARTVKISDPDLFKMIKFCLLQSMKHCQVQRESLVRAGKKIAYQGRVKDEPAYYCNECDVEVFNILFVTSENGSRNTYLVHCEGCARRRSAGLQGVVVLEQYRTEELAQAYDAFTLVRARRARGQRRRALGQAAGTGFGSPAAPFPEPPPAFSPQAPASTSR

| SMILES | IC50 (JMJD3) [nM] | IC50 (Jarid1B) [nM] |
| --- | --- | --- |
| Fc1cccc2c1CCCC2Cn1cnc(-c2cc(-c3nn[nH]c3C(F)(F)F)ccn2)c1 (centres unmarked) [Example 99, 2-{1-[(5-fluoro-1,2,3,4-tetrahydronaphthalen-1-yl)methyl]-1H-imidazol-4-yl}-4-[5-(trifluoromethyl)-1H-1,2,3-triazol-4-yl]pyridine] | > 10000 |  |
| Cc1ccc2c(c1)CCCC2Cn1cnc(-c2cc(-c3nn[nH]c3C(F)(F)F)ccn2)c1 (centres unmarked) [Example 102, 2-{1-[(6-methyl-1,2,3,4-tetrahydronaphthalen-1-yl)methyl]-1H-imidazol-4-yl}-4-[5-(trifluoromethyl)-1H-1,2,3-triazol-4-yl]pyridine] | > 10000 | 100 to 1000 |
| FC(F)(F)COc1ccccc1Cn1cnc(-c2cc(-c3nn[nH]c3C(F)(F)F)ccn2)c1 [Example 76, 2-(1-{[2-(2,2,2-trifluoroethoxy)phenyl]methyl}-1H-imidazol-4-yl)-4-[5-(trifluoromethyl)-1H-1,2,3-triazol-4-yl]pyridine] | > 10000 | 100 to 1000 |
| Fc1ccc(CCn2cnc(-c3cc(-c4nn[nH]c4C(F)(F)F)ccn3)c2)cc1 [Example 77] | 1000 to 10000 | ≤ 100 |
| FC(F)(F)c1[nH]nnc1-c1ccnc(-c2cn(Cc3ccccc3)cn2)c1 [Example 72, 2-(1-benzyl-1H-imidazol-4-yl)-4-[5-(trifluoromethyl)-1H-1,2,3-triazol-4-yl]pyridine] | > 10000 | 100 to 1000 |
| CC(c1ccccc1)n1cnc(-c2cc(-c3nn[nH]c3C(F)(F)F)ccn2)c1 (centres unmarked) [Example 73, 2-[1-(1-phenylethyl)-1H-imidazol-4-yl]-4-[5-(trifluoromethyl)-1H-1,2,3-triazol-4-yl]pyridine] | > 10000 | 100 to 1000 |
| Fc1cccc(CCn2cnc(-c3cc(-c4nn[nH]c4C(F)(F)F)ccn3)c2)c1F [Example 79, 2-{1-[2-(2,3-difluorophenyl)ethyl]-1H-imidazol-4-yl}-4-[5-(trifluoromethyl)-1H-1,2,3-triazol-4-yl]pyridine] | > 10000 | ≤ 100 |
| COc1ccc2c(c1)C(Cn1cnc(-c3cc(-c4nn[nH]c4C(F)(F)F)ccn3)c1)CCC2 (centres unmarked) [Example 106, 2-{1-[(7-methoxy-1,2,3,4-tetrahydronaphthalen-1-yl)methyl]-1H-imidazol-4-yl}-4-[5-(trifluoromethyl)-1H-1,2,3-triazol-4-yl]pyridine] | > 10000 | ≤ 100 |
| Fc1ccc(CCn2cnc(-c3cc(-c4nn[nH]c4C(F)(F)F)ccn3)c2)c(F)c1 [Example 86, 2-{1-[2-(2,4-difluorophenyl)ethyl]-1H-imidazol-4-yl}-4-[5-(trifluoromethyl)-1H-1,2,3-triazol-4-yl]pyridine] | > 10000 | ≤ 100 |
| Fc1cccc(F)c1CCn1cnc(-c2cc(-c3nn[nH]c3C(F)(F)F)ccn2)c1 [Example 87, 2-{1-[2-(2,6-difluorophenyl)ethyl]-1H-imidazol-4-yl}-4-[5-(trifluoromethyl)-1H-1,2,3-triazol-4-yl]pyridine] | > 10000 | 100 to 1000 |
| FC(F)(F)c1ccc(CCn2cnc(-c3cc(-c4nn[nH]c4C(F)(F)F)ccn3)c2)cc1 [Example 94, 4-[5-(trifluoromethyl)-1H-1,2,3-triazol-4-yl]-2-(1-{2-[4-(trifluoromethyl)phenyl]ethyl}-1H-imidazol-4-yl)pyridine] | > 10000 | 100 to 1000 |
| Fc1ccc2c(c1)C(Cn1cnc(-c3cc(-c4nn[nH]c4C(F)(F)F)ccn3)c1)CCC2 (centres unmarked) [Example 101, 2-{1-[(7-fluoro-1,2,3,4-tetrahydronaphthalen-1-yl)methyl]-1H-imidazol-4-yl}-4-[5-(trifluoromethyl)-1H-1,2,3-triazol-4-yl]pyridine] | > 10000 | ≤ 100 |
| Cc1ccc(Cn2cnc(-c3cc(-c4nn[nH]c4C(F)(F)F)ccn3)c2)cc1 [Example 65, 2-{1-[(4-methylphenyl)methyl]-1H-imidazol-4-yl}-4-[5-(trifluoromethyl)-1H-1,2,3-triazol-4-yl]pyridine] | > 10000 | > 10000 |
| FC(F)(F)c1[nH]nnc1-c1ccnc(-c2cn(CCc3ccc(Cl)cc3)cn2)c1 [Example 92, 2-{1-[2-(4-chlorophenyl)ethyl]-1H-imidazol-4-yl}-4-[5-(trifluoromethyl)-1H-1,2,3-triazol-4-yl]pyridine] | > 10000 | 100 to 1000 |
| Fc1ccccc1CCn1cnc(-c2cc(-c3nn[nH]c3C(F)(F)F)ccn2)c1 [Example 84, 2-{1-[2-(2-fluorophenyl)ethyl]-1H-imidazol-4-yl}-4-[5-(trifluoromethyl)-1H-1,2,3-triazol-4-yl]pyridine] |  | ≤ 100 |
| FC(F)(F)c1[nH]nnc1-c1ccnc(-c2cn(CC3CCc4ccccc43)cn2)c1 (centres unmarked) [Example 83, 2-{1-[(2,3-dihydro-1H-inden-1-yl)methyl]-1H-imidazol-4-yl}-4-[5-(trifluoromethyl)-1H-1,2,3-triazol-4-yl]pyridine] |  | ≤ 100 |
| FC(F)(F)c1ccccc1CCn1cnc(-c2cc(-c3nn[nH]c3C(F)(F)F)ccn2)c1 [Example 60, 4-[5-(trifluoromethyl)-1H-1,2,3-triazol-4-yl]-2-(1-{2-[2-(trifluoromethyl)phenyl]ethyl}-1H-imidazol-4-yl)pyridine] |  | ≤ 100 |
| Fc1ccc2c(c1)C(n1cnc(-c3cc(-c4nn[nH]c4C(F)(F)F)ccn3)c1)CC2 (centres unmarked) [Example 85, 2-[1-(6-fluoro-2,3-dihydro-1H-inden-1-yl)-1H-imidazol-4-yl]-4-[5-(trifluoromethyl)-1H-1,2,3-triazol-4-yl]pyridine] |  | ≤ 100 |
| CC(C)C(c1ccccc1)n1cnc(-c2cc(-c3nn[nH]c3C(F)(F)F)ccn2)c1 (centres unmarked) [Example 75, 2-[1-(2-methyl-1-phenylpropyl)-1H-imidazol-4-yl]-4-[5-(trifluoromethyl)-1H-1,2,3-triazol-4-yl]pyridine] | > 10000 |  |
